This is an account of results in ChEMBL document CHEMBL1130110 (J Med Chem, 1997).

Test [1] addresses Glucagon receptor (Rattus norvegicus) (UniProt P30082). Briefly: Percent stimulation of cAMP production over basal. In kind it is functional. More on the design: concentration or dose not given beside the values. A general note: Cyclic AMP is a second messenger, typically raised through Gs and lowered through Gi signalling.
The target is the same in test [2]. Briefly: Relative binding potency expressed as receptor binding IC50 for glucagon by receptor binding IC50 for compound.

Glucagon receptor (Rattus norvegicus), sequence (P30082 whole entry): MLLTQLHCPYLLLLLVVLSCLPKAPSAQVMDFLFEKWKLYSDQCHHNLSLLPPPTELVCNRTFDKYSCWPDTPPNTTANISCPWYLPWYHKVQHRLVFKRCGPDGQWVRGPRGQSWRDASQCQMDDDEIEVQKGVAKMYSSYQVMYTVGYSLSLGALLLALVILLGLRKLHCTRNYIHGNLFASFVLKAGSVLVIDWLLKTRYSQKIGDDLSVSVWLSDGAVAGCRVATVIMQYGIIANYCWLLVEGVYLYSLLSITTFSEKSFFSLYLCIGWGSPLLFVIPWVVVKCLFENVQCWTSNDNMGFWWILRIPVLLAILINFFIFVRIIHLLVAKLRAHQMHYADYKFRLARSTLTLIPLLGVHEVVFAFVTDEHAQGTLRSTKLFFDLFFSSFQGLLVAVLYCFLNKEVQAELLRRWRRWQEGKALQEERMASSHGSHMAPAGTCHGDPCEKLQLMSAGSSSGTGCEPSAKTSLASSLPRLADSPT

In the case of `CCCC[C@H](NC(=O)[C@H](NC(=O)CNC(=O)[C@@H](CCC(N)=O)NC(=O)[C@H](N)CO)[C@H](C)O)C(=O)N[C@@H](C(=O)N[C@H](CO)C(=O)N[C@H](CCC(=O)O)C(=O)N[C@H](Cc1ccc(O)cc1)C(=O)N[C@H](CO)C(=O)N[C@H](CCCCN)C(=O)N[C@H](Cc1ccc(O)cc1)C(=O)N[C@H](CC(C)C)C(=O)N[C@H](CC(=O)O)C(=O)N[C@H](CO)C(=O)N[C@H](CCCN=C(N)N)C(=O)N[C@H](CCCN=C(N)N)C(=O)N[C@H](C)C(=O)N[C@H](CCC(N)=O)C(=O)N[C@H](CC(=O)O)C(=O)N[C@H](Cc1ccccc1)C(=O)N[C@@H](C(=O)N[C@H](CCC(N)=O)C(=O)N[C@H](Cc1c[nH]c2ccccc12)C(=O)N[C@H](CC(C)C)C(=O)N[C@H](CCSC)C(=O)N[C@H](CC(N)=O)C(=O)N[C@@H](C(N)=O)[C@H](C)O)C(C)C)[C@H](C)O`, the results for the Activity in test [1] and in test [2] were 12% and 3.1%, respectively.

In the case of `CSCC[C@@H](NC(=O)[C@@H](CC(C)C)NC(=O)[C@@H](Cc1c[nH]c2ccccc12)NC(=O)[C@@H](CCC(N)=O)NC(=O)[C@H](NC(=O)[C@@H](Cc1ccccc1)NC(=O)[C@@H](CC(=O)O)NC(=O)[C@@H](CCC(N)=O)NC(=O)[C@@H](C)NC(=O)[C@@H](CCCN=C(N)N)NC(=O)[C@@H](CCCN=C(N)N)NC(=O)[C@@H](CO)NC(=O)[C@@H](CC(=O)O)NC(=O)[C@@H](CC(C)C)NC(=O)[C@@H](Cc1ccc(O)cc1)NC(=O)[C@@H](CCCCN)NC(=O)[C@@H](CO)NC(=O)[C@@H](Cc1ccc(O)cc1)NC(=O)[C@@H](CCC(=O)O)NC(=O)[C@@H](CO)NC(=O)[C@H](NC(=O)[C@H](NC(=O)CNC(=O)[C@@H](CCC(N)=O)NC(=O)[C@H](N)CO)[C@H](C)O)[C@H](C)O)C(C)C)C(=O)N[C@H](CC(N)=O)C(=O)N[C@@H](C(N)=O)[C@H](C)O`, the Activity came out at 0% in test [1] and 3.1% in test [2].

As to `CSCC[C@@H](NC(=O)[C@@H](CC(C)C)NC(=O)[C@@H](Cc1c[nH]c2ccccc12)NC(=O)[C@@H](CCC(N)=O)NC(=O)[C@H](NC(=O)[C@@H](Cc1ccccc1)NC(=O)[C@@H](CC(=O)O)NC(=O)[C@@H](CCC(N)=O)NC(=O)[C@@H](C)NC(=O)[C@@H](CCCN=C(N)N)NC(=O)[C@@H](CCCN=C(N)N)NC(=O)[C@@H](CO)NC(=O)[C@@H](CC(=O)O)NC(=O)[C@@H](CC(C)C)NC(=O)[C@@H](Cc1ccc(O)cc1)NC(=O)[C@@H](CCCCN)NC(=O)[C@@H](CO)NC(=O)[C@@H](Cc1ccc(O)cc1)NC(=O)[C@@H](CCC(=O)O)NC(=O)[C@@H](CO)NC(=O)[C@H](NC(=O)[C@@H](Cc1ccc(O)cc1)NC(=O)[C@H](NC(=O)CNC(=O)[C@@H](CCC(N)=O)NC(=O)[C@H](N)CO)[C@H](C)O)[C@H](C)O)C(C)C)C(=O)N[C@H](CC(N)=O)C(=O)N[C@@H](C(N)=O)[C@H](C)O`, the Activity in test [1] was found to be 0%; in test [2], 3.8%.

Regarding `CSCC[C@@H](NC(=O)[C@@H](CC(C)C)NC(=O)[C@@H](Cc1c[nH]c2ccccc12)NC(=O)[C@@H](CCC(N)=O)NC(=O)[C@H](NC(=O)[C@@H](Cc1ccccc1)NC(=O)[C@@H](CC(=O)O)NC(=O)[C@@H](CCC(N)=O)NC(=O)[C@@H](C)NC(=O)[C@@H](CCCN=C(N)N)NC(=O)[C@@H](CCCN=C(N)N)NC(=O)[C@@H](CO)NC(=O)[C@@H](CC(=O)O)NC(=O)[C@@H](CC(C)C)NC(=O)[C@@H](Cc1ccc(O)cc1)NC(=O)[C@@H](CCCCN)NC(=O)[C@@H](CO)NC(=O)[C@@H](Cc1ccc(O)cc1)NC(=O)[C@@H](CCC(=O)O)NC(=O)[C@@H](CO)NC(=O)[C@H](NC(=O)[C@@H](Cc1ccccc1)NC(=O)[C@H](NC(=O)[C@@H](CCC(N)=O)NC(=O)[C@H](N)CO)[C@H](C)O)[C@H](C)O)C(C)C)C(=O)N[C@H](CC(N)=O)C(=O)N[C@@H](C(N)=O)[C@H](C)O`, the Activity in test [1] was found to be 6%; in test [2], 3%.

On to `CC(C)C[C@@H](NC(=O)[C@@H](Cc1ccc(O)cc1)NC(=O)[C@@H](CCCCN)NC(=O)[C@@H](CO)NC(=O)[C@@H](Cc1ccc(O)cc1)NC(=O)[C@@H](CC(=O)O)NC(=O)[C@@H](CO)NC(=O)[C@H](NC(=O)[C@H](NC(=O)CNC(=O)[C@@H](CCC(N)=O)NC(=O)[C@@H](CO)NC(=O)[C@H](N)Cc1c[nH]cn1)[C@H](C)O)[C@H](C)O)C(=O)N[C@H](CC(=O)O)C(=O)N[C@H](CO)C(=O)N[C@H](CCCN=C(N)N)C(=O)N[C@H](CCCN=C(N)N)C(=O)N[C@H](C)C(=O)N[C@H](CCC(N)=O)C(=O)N[C@H](CC(=O)O)C(=O)N[C@H](Cc1ccccc1)C(=O)N[C@@H](C(=O)N[C@H](CCC(N)=O)C(=O)N[C@H](Cc1c[nH]c2ccccc12)C(=O)N[C@H](CC(C)C)C(=O)N[C@H](CCS)C(=O)N[C@H](CC(N)=O)C(=O)N[C@@H](C=O)[C@H](C)O)C(C)C`, for which the values for the Activity in test [1] and in test [2] were 0% and 0.3%, respectively.

On to `CSCC[C@@H](NC(=O)[C@@H](CC(C)C)NC(=O)[C@@H](Cc1c[nH]c2ccccc12)NC(=O)[C@@H](CCC(N)=O)NC(=O)[C@H](NC(=O)[C@@H](Cc1ccccc1)NC(=O)[C@@H](CC(=O)O)NC(=O)[C@@H](CCC(N)=O)NC(=O)[C@@H](C)NC(=O)[C@@H](CCCN=C(N)N)NC(=O)[C@@H](CCCN=C(N)N)NC(=O)[C@@H](CO)NC(=O)[C@@H](CC(=O)O)NC(=O)[C@@H](CC(C)C)NC(=O)[C@@H](Cc1ccc(O)cc1)NC(=O)[C@@H](CCCCN)NC(=O)[C@@H](CO)NC(=O)[C@@H](Cc1ccc(O)cc1)NC(=O)[C@@H](CC(=O)O)NC(=O)[C@@H](CO)NC(=O)[C@H](NC(=O)[C@H](NC(=O)CNC(=O)[C@@H](CCC(N)=O)NC(=O)[C@H](N)CO)[C@H](C)O)[C@H](C)O)C(C)C)C(=O)N[C@H](CC(N)=O)C(=O)N[C@@H](C(=O)O)[C@H](C)O`, for which the Activity was determined as 0% in test [1] and 1% in test [2].

For `CSCC[C@@H](NC(=O)[C@@H](CC(C)C)NC(=O)[C@@H](Cc1c[nH]c2ccccc12)NC(=O)[C@@H](CCC(N)=O)NC(=O)[C@H](NC(=O)[C@@H](Cc1ccccc1)NC(=O)[C@@H](CC(=O)O)NC(=O)[C@@H](CCC(N)=O)NC(=O)[C@@H](C)NC(=O)[C@@H](CCCN=C(N)N)NC(=O)[C@@H](CCCN=C(N)N)NC(=O)[C@@H](CO)NC(=O)[C@@H](CC(=O)O)NC(=O)[C@@H](CC(C)C)NC(=O)[C@@H](Cc1ccc(O)cc1)NC(=O)[C@@H](CCCCN)NC(=O)[C@@H](CO)NC(=O)[C@@H](Cc1ccc(O)cc1)NC(=O)[C@@H](CCC(=O)O)NC(=O)[C@@H](CO)NC(=O)[C@H](NC(=O)[C@@H](CC(=O)O)NC(=O)[C@H](NC(=O)CNC(=O)[C@@H](CCC(N)=O)NC(=O)[C@H](N)CO)[C@H](C)O)[C@H](C)O)C(C)C)C(=O)N[C@H](CC(N)=O)C(=O)N[C@@H](C(N)=O)[C@H](C)O`, the Activity is 0% in test [1] and under 0.1% in test [2].

`CSCC[C@@H](NC(=O)[C@@H](CC(C)C)NC(=O)[C@@H](Cc1c[nH]c2ccccc12)NC(=O)[C@@H](CCC(N)=O)NC(=O)[C@H](NC(=O)[C@@H](Cc1ccccc1)NC(=O)[C@@H](CC(=O)O)NC(=O)[C@@H](CCC(N)=O)NC(=O)[C@@H](C)NC(=O)[C@@H](CCCN=C(N)N)NC(=O)[C@@H](CCCN=C(N)N)NC(=O)[C@@H](CO)NC(=O)[C@@H](CC(=O)O)NC(=O)[C@@H](CC(C)C)NC(=O)[C@@H](Cc1ccc(O)cc1)NC(=O)[C@@H](CCCCN)NC(=O)[C@@H](CO)NC(=O)[C@@H](Cc1ccc(O)cc1)NC(=O)[C@@H](CCC(=O)O)NC(=O)[C@@H](CO)NC(=O)[C@H](NC(=O)[C@H](NC(=O)CNC(=O)[C@@H](CCC(N)=O)NC(=O)[C@H](N)CO)[C@H](C)O)[C@H](C)O)C(C)C)C(=O)N[C@H](CC(N)=O)C(=O)N[C@@H](C(=O)O)[C@H](C)O` (stereo in doubt; 13): the Activity was 0% in test [1] and under 0.1% in test [2].

As for `CSCC[C@@H](NC(=O)[C@@H](CC(C)C)NC(=O)[C@@H](Cc1c[nH]c2ccccc12)NC(=O)[C@@H](CCC(N)=O)NC(=O)[C@H](NC(=O)[C@@H](Cc1ccccc1)NC(=O)[C@@H](CC(=O)O)NC(=O)[C@@H](CCC(N)=O)NC(=O)[C@@H](C)NC(=O)[C@@H](CCCN=C(N)N)NC(=O)[C@@H](CCCN=C(N)N)NC(=O)[C@@H](CO)NC(=O)[C@@H](CC(=O)O)NC(=O)[C@@H](CC(C)C)NC(=O)[C@@H](Cc1ccc(O)cc1)NC(=O)[C@@H](CCCCN)NC(=O)[C@@H](CO)NC(=O)[C@@H](Cc1ccc(O)cc1)NC(=O)[C@@H](CC(=O)O)NC(=O)[C@@H](CO)NC(=O)[C@H](NC(=O)[C@H](NC(=O)CNC(=O)[C@@H](CCC(N)=O)NC(=O)[C@@H](CO)NC(=O)[C@H](N)Cc1c[nH]cn1)[C@H](C)O)[C@H](C)O)C(C)C)C(=O)N[C@H](CC(N)=O)C(=O)N[C@@H](C(N)=O)[C@H](C)O`, the Activity amounted to 0% in test [1] and 0.3% in test [2].

Regarding `CSCC[C@@H](NC(=O)[C@@H](CC(C)C)NC(=O)[C@@H](Cc1c[nH]c2ccccc12)NC(=O)[C@@H](CCC(N)=O)NC(=O)[C@H](NC(=O)[C@@H](Cc1ccccc1)NC(=O)[C@@H](CC(=O)O)NC(=O)[C@@H](CCC(N)=O)NC(=O)[C@@H](C)NC(=O)[C@@H](CCCN=C(N)N)NC(=O)[C@@H](CCCN=C(N)N)NC(=O)[C@@H](CO)NC(=O)[C@@H](CC(=O)O)NC(=O)[C@@H](CC(C)C)NC(=O)[C@@H](Cc1ccc(O)cc1)NC(=O)[C@@H](CCCCN)NC(=O)[C@@H](CO)NC(=O)[C@@H](Cc1ccc(O)cc1)NC(=O)[C@@H](CCC(=O)O)NC(=O)[C@@H](CO)NC(=O)[C@H](NC(=O)[C@H](NC(=O)CNC(=O)[C@@H](CCC(N)=O)NC(=O)[C@H](N)CO)[C@H](C)O)[C@H](C)O)C(C)C)C(=O)N[C@H](CC(N)=O)C(=O)N[C@@H](C(=O)O)[C@H](C)O` (stereo in doubt; 12), the figures for the Activity in test [1] and in test [2] were 0% and under 0.1%, respectively.

Regarding `CSCC[C@@H](NC(=O)[C@@H](CC(C)C)NC(=O)[C@@H](Cc1c[nH]c2ccccc12)NC(=O)[C@@H](CCC(N)=O)NC(=O)[C@H](NC(=O)[C@@H](Cc1ccccc1)NC(=O)[C@@H](CC(=O)O)NC(=O)[C@@H](CCC(N)=O)NC(=O)[C@@H](C)NC(=O)[C@@H](CCCN=C(N)N)NC(=O)[C@@H](CCCN=C(N)N)NC(=O)[C@@H](CO)NC(=O)[C@@H](CC(=O)O)NC(=O)[C@@H](CC(C)C)NC(=O)[C@@H](Cc1ccc(O)cc1)NC(=O)[C@@H](CCCCN)NC(=O)[C@@H](CO)NC(=O)[C@@H](Cc1ccc(O)cc1)NC(=O)[C@@H](CCC(=O)O)NC(=O)[C@@H](CO)NC(=O)[C@H](NC(=O)[C@H](Cc1ccccc1)NC(=O)[C@H](NC(=O)CNC(=O)[C@@H](CCC(N)=O)NC(=O)[C@H](N)CO)[C@H](C)O)[C@H](C)O)C(C)C)C(=O)N[C@H](CC(N)=O)C(=O)N[C@@H](C(N)=O)[C@H](C)O`, the figures for the Activity in test [1] and in test [2] were 0% and 1.5%, respectively.
